In patent US20130183239A1, “ISOTOPIC CARBON CHOLINE ANALOGS” (IMPERIAL COLLEGE, priority 2010, published 2013):

Key:
choline oxidase = assay: Enzymatic oxidation study using choline oxidase; settings: 60 minute time point, radio-HPLC
[1] = mouse, in vivo, iv
[2] = mouse, in vivo
Description: (§1) Radiolabeled metabolites from plasma and tissues were quantified using a method adapted from Smith G, Zhao Y, Leyton J, et al. Radiosynthesis and pre-clinical evaluation of [(18)F]fluoro-[1,2-(2)H(4)]choline. Nucl Med Biol. 2011; 38:39-51. Briefly, tumor-bearing mice under terminal anaesthesia were administered a bolus i.v. injection of one of the following radiotracers: ^11C-choline, ^11C-D4-choline (˜18.5 MBq) or ^18F-D4-choline (˜3.7 MBq), and sacrificed by exsanguination via cardiac puncture at 2, 15, 30 or 60 min post radiotracer injection. For automated radiosynthesis methodology, see Example 22. Tumor, kidney and liver samples were immediately snap-frozen in liquid nitrogen. Aliquots of heparinized blood were rapidly centrifuged (14000 g, 5 min, 4° C.) to obtain plasma. Plasma samples were subsequently snap-frozen in liquid nitrogen and kept on dry ice prior to analysis.
(§2) For analysis, samples were thawed and kept at 4° C. immediately before use. To ice cold plasma (200 μl) was added ice cold methanol (1.5 mL) and the resulting suspension centrifuged (14000 g; 4° C.; 3 min). The supernatant was then decanted and evaporated to dryness on a rotary evaporator (bath temperature, 40° C.), then resuspended in HPLC mobile phase (Solvent A: acetonitrile/water/ethanol/acetic acid/1.0 M ammonium acetate/0.1 M sodium phosphate [800/127/68/2/3/10]; 1.1 mL). Samples were filtered through a hydrophilic syringe filter (0.2 μm filter; Millex PTFE filter, Millipore, Mass., USA) and the sample (˜1 mL) then injected via a 1 mL sample loop onto the HPLC for analysis. Tissues were homogenized in ice-cold methanol (1.5 mL) using an Ultra-Turrax T-25 homogenizer (IKA Werke GmbH and Co. KG, Staufen, Germany) and subsequently treated as per plasma samples.
(§3) Samples were analyzed on an Agilent 1100 series HPLC system (Agilent Technologies, Santa Clara, Calif., USA), configured as described above, using the method of Leyton J, Smith G, Zhao Y, et al. [18F]fluoromethyl-[1, 2-2H4]-choline: a novel radiotracer for imaging choline metabolism in tumors by positron emission tomography. Cancer Res. 2009; 69:7721-7728. A μBondapak C18 HPLC column (Waters, Milford, Mass., USA; […]), stationary phase and a mobile phase comprising of Solvent A (vide supra) and Solvent B (acetonitrile/water/ethanol/acetic acid/1.0 M ammonium acetate/0.1 M sodium phosphate (400/400/68/44/88/10)), delivered at a flow rate of 3 mL/min were used for analyte separation. The gradient was set as follows: 0% B for 5 min; 0% to 100% B in 10 min; 100% B for 0.5 min; 100% to 0% B in 2 min; 0% B for 2.5 min.
A 2-tissue irreversible compartmental model was employed to fit the TACs, as has been previously established for ^11C-choline (Kenny L M, Contractor K B, Hinz R, et al. Reproducibility of [11C]choline-positron emission tomography and effect of trastuzumab. Clin Cancer Res. Aug. 15 2010; 16(16):4236-4245; and Sutinen E, Nurmi M, Roivainen A, et al. Kinetics of [(11)C]choline uptake in prostate cancer: a PET study. Eur J Nucl Med Mol. Imaging. March 2004; 31(3):317-324). An estimate of the whole blood TAC (wbTAC(t)) was derived from the PET image itself, as described above. […] Therefore it was fitted with a sum of 3 exponentials from the peak on and the fitted function was used as input function in the kinetic modeling (after metabolite correction, see below). […] The pf values were fitted to a sum of two exponentials with the constraint pf(t=0)=1 to obtain the function pf(t).

HCT116 tumors = settings: mouse, in vivo
Description: as §1, §2, §3
^11C-choline, ^11C-D4-choline and ^18F-D4-choline metabolism were measured in HCT116 tumors (FIG. 22).

[3] = mouse, in vivo; remark: listed apart in the source
Description: Metabolite analysis of tissues including liver, kidney and tumor by HPLC was also accomplished. […] Choline and its metabolites lack any UV chromophore to permit presentation of chromatograms of the cold unlabelled compound simultaneously with the radioactivity chromatograms.
Liver, kidney, and tumor samples were obtained at 30 min. All samples were snap-frozen in liquid nitrogen. For analysis, samples were thawed and kept at 4° C. immediately before use. To ˜0.2 mL plasma was added ice-cold methanol (1.5 mL). The mixture was then centrifuged (3 min, 15,493×g, 4jC). The supernatant was evaporated to dryness using a rotary evaporator (Heidoloph Instruments) at a bath temperature of 40° C. The residue was suspended in mobile phase (1.1 mL), clarified (0.2 Am filter), and analyzed by HPLC. Liver, kidney, and tumor samples were homogenized in ice-cold methanol (1.5 mL) using an IKA Ultra-Turrax T-25 homogenizer and subsequently treated as per plasma samples (above). All samples were analyzed by radio-HPLC on an Agilent 1100 series HPLC system (Agilent Technologies) equipped with a γ-RAM Model 3 γ-detector (IN/US Systems) and Laura 3 software (Lablogic). The stationary phase comprised a Waters μBondapak C18 reverse-phase column (300×7.8 mm) (Waters, Milford, Mass., USA). Samples were analyzed using a mobile phase comprising solvent A (acetonitrile/water/ethanol/acetic acid/1.0 mol/L ammonium acetate/0.1 mol/L sodium phosphate; 800/127/68/2/3/10) and solvent B (acetonitrile/water/ethanol/acetic acid/1.0 mol/L ammonium acetate/0.1 mol/L sodiumphosphate; 400/400/68/44/88/10) with a gradient of 0% B for 6 min, then 0→100% B in 10 min, 100% B for 0.5 min, 100→0% B in 1.5 min then 0% B for 2 min, delivered at a flow rate of 3 mL/min.

[4] = Potassium permanganate oxidation study; type: physicochemical; settings: 1 hour post-treatment with potassium permanganate, room temperature, radio-HPLC
Text: Reagents and Conditions: i) KMnO4, Na2CO3, H2O, rt.

[2H]C([2H])(O)C([2H])([2H])[N+](C)(C)C[18F] [[^18F]D4-FCH, [^18F]fluoromethyl-[1,2-^2H4]-choline]
parent radiotracer present (choline oxidase): 29±4%
conversion to betaine metabolite in plasma [1]: ~40%
liver radioactivity as betaine [2]: 15.0±3.6%
liver radioactivity present as phosphocholine [2]: ~80%
plasma radioactivity in the form of betaine [2]: 43.7±12.4%
resistance to oxidation in the kidney [2]: more resistant to oxidation
tumor betaine radioactivity (HCT116 tumors): 14.0±3.0%
tumor radioactivity corresponding to phosphocholine (HCT116 tumors): 45.1±3.2%
higher un-metabolized parent tracer in tumor compared to 11C-D4-choline (HCT116 tumors; 1 h): 4.0 fold
higher un-metabolized parent tracer in tumor compared to 11C-choline (HCT116 tumors; 1 h): 2.7 fold
kidney radioactivity as phosphocholine [3]: 60.6±3.7%
kidney radioactivity in the form of betaine [3]: 20.6±6.2%
unknown metabolite (possibly the aldehyde intermediate) in liver [3]: 7.4±2.3%
unknown metabolite in kidney [3]: 8.8±0.2%
form of radioactivity in tumors ([3]; iv): mainly in the form of phosphocholine
parent compound still present [4]: ~80%
